Measurements taken from the supplement of paper PMC10627819.

Legend:
Assay in all cases: Bliss interaction score (quartile over a dose matrix) (fitness difference); higher = more antagonism (negative = synergy)
[1] = system: B. subtilis 168
How it was run: (§1)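 Quartiles of the Bliss score were taken over technical, biological and donor/recipient replicates. That score is observed fitness minus the product of the single-drug fitness values, which were inferred from combination data. Fitness itself is OD595 at entry into stationary phase divided by the plate's robust no-drug mean, with a cap at 1.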

[2] = system: S. aureus DSM 20231
How it was run: as §1

[3] = system: S. aureus Newman
How it was run: as §1

[4] = system: S. pneumoniae D39V
How it was run: as §1
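Note: first quartile when negative (synergy) and third quartile when positive (antagonism).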

Row | SMILES | Bliss interaction score [1] | Bliss interaction score [2] | Bliss interaction score [3] | Bliss interaction score [4]
1 | CC(=O)OC[C@H]1O[C@@H]([S-])[C@H](OC(C)=O)[C@@H](OC(C)=O)[C@@H]1OC(C)=O.CCP(CC)CC.[Au+] [Auranofin] + CO[C@@]12[C@H](COC(N)=O)C3=C(C(=O)C(C)=C(N)C3=O)N1C[C@@H]1N[C@@H]12 [MitomycinC] | 0.0315 | -0.0435 | 0.0961 | -0.126
2 | CC(=O)OC[C@H]1O[C@@H]([S-])[C@H](OC(C)=O)[C@@H](OC(C)=O)[C@@H]1OC(C)=O.CCP(CC)CC.[Au+] [Auranofin] + CO[C@H]1/C=C/O[C@@]2(C)Oc3c(C)c(O)c4c(O)c(c(/C=N/N5CCN(C)CC5)c(O)c4c3C2=O)NC(=O)/C(C)=C\C=C\[C@H](C)[C@H](O)[C@@H](C)[C@@H](O)[C@@H](C)[C@H](OC(C)=O)[C@@H]1C [Rifampicin] | 0.081 | 0.0331 | 0.0123 | 0.0685
3 | CC(=O)OC[C@H]1O[C@@H]([S-])[C@H](OC(C)=O)[C@@H](OC(C)=O)[C@@H]1OC(C)=O.CCP(CC)CC.[Au+] [Auranofin] + COc1c(N2C[C@@H]3CCCN[C@@H]3C2)c(F)cc2c(=O)c(C(=O)O)cn(C3CC3)c12 [Moxifloxacin] | 0.031 | 0.0832 | 0.105 | -0.051
4 | CC(=O)OC[C@H]1O[C@@H]([S-])[C@H](OC(C)=O)[C@@H](OC(C)=O)[C@@H]1OC(C)=O.CCP(CC)CC.[Au+] [Auranofin] + COc1cc(Cc2cnc(N)nc2N)cc(OC)c1OC [Trimethoprim] | -0.0454 | 0.0284 | -0.0844 | -0.0729
5 | CC(=O)OC[C@H]1O[C@@H]([S-])[C@H](OC(C)=O)[C@@H](OC(C)=O)[C@@H]1OC(C)=O.CCP(CC)CC.[Au+] [Auranofin] + COc1ccc(C[C@H](N)C(=O)N[C@H]2[C@@H](O)[C@H](n3cnc4c(N(C)C)ncnc43)O[C@@H]2CO)cc1 [Puromycin] | -0.0523 | -0.0538 | -0.0752 | -0.103
6 | CC(=O)OC[C@H]1O[C@@H]([S-])[C@H](OC(C)=O)[C@@H](OC(C)=O)[C@@H]1OC(C)=O.CCP(CC)CC.[Au+] [Auranofin] + COc1cccc2c1C(=O)c1c(O)c3c(c(O)c1C2=O)C[C@@](O)(C(=O)CO)C[C@@H]3O[C@H]1C[C@H](N)[C@H](O)[C@H](C)O1 [Doxorubicin] | 0.0674 | -0.0288 | 0.112 | -0.0943
7 | CC(=O)OC[C@H]1O[C@@H]([S-])[C@H](OC(C)=O)[C@@H](OC(C)=O)[C@@H]1OC(C)=O.CCP(CC)CC.[Au+] [Auranofin] + C[C@@H]1O[C@@H]1P(=O)(O)O [Fosfomycin] | 0.0301 | 0.0509 | 0.0901 | -0.0421
8 | CC(=O)OC[C@H]1O[C@@H]([S-])[C@H](OC(C)=O)[C@@H](OC(C)=O)[C@@H]1OC(C)=O.CCP(CC)CC.[Au+] [Auranofin] + C[C@@H](O)[C@H]1C(=O)N2C(C(=O)O)=C(SCCNC=N)C[C@H]12 [Imipenem] | -0.0439 | -0.0179 | 0.162 | -0.0587
9 | CC(=O)OC[C@H]1O[C@@H]([S-])[C@H](OC(C)=O)[C@@H](OC(C)=O)[C@@H]1OC(C)=O.CCP(CC)CC.[Au+] [Auranofin] + C[C@H]1COc2c(N3CCN(C)CC3)c(F)cc3c(=O)c(C(=O)O)cn1c23 [Levofloxacin] | 0.044 | 0.0688 | 0.0684 | -0.0939
10 | CC(=O)OC[C@H]1O[C@@H]([S-])[C@H](OC(C)=O)[C@@H](OC(C)=O)[C@@H]1OC(C)=O.CCP(CC)CC.[Au+] [Auranofin] + C[C@H]1c2cccc(O)c2C(=O)C2=C(O)[C@]3(O)C(=O)C(C(N)=O)=C(O)[C@@H](N(C)C)[C@@H]3[C@@H](O)[C@@H]21 [Doxycycline] | 0.0704 | -0.0178 | 0.0622 | 0.052
11 | CC(=O)OC[C@H]1O[C@@H]([S-])[C@H](OC(C)=O)[C@@H](OC(C)=O)[C@@H]1OC(C)=O.CCP(CC)CC.[Au+] [Auranofin] + C[n+]1ccc(-c2cc[n+](C)cc2)cc1 [Paraquat] | -0.0338 | -0.0369 | -0.0941 | 0.0914
12 | CC(=O)OC[C@H]1O[C@@H]([S-])[C@H](OC(C)=O)[C@@H](OC(C)=O)[C@@H]1OC(C)=O.CCP(CC)CC.[Au+] [Auranofin] + Cc1cc(NS(=O)(=O)c2ccc(N)cc2)no1 [Sulfamethoxazol] | -0.0445 | -0.0419 | -0.0374 | 0.088
13 | CC(=O)OC[C@H]1O[C@@H]([S-])[C@H](OC(C)=O)[C@@H](OC(C)=O)[C@@H]1OC(C)=O.CCP(CC)CC.[Au+] [Auranofin] + Cc1ncc([N+](=O)[O-])n1CCO [Metronidazole] | -0.0357 | -0.046 | -0.137 | 0.133
14 | CC(=O)OC[C@H]1O[C@@H]([S-])[C@H](OC(C)=O)[C@@H](OC(C)=O)[C@@H]1OC(C)=O.CCP(CC)CC.[Au+] [Auranofin] + Cc1onc(-c2ccccc2)c1C(=O)N[C@@H]1C(=O)N2[C@@H]1SC(C)(C)[C@@H]2C(=O)O [Oxacillin] | -0.0319 | 0.0406 | -0.0535 | 0.125
15 | CC(=O)OC[C@H]1O[C@@H]([S-])[C@H](OC(C)=O)[C@@H](OC(C)=O)[C@@H]1OC(C)=O.CCP(CC)CC.[Au+] [Auranofin] + Clc1ccc(COC(Cn2ccnc2)c2ccc(Cl)cc2Cl)c(Cl)c1 [Miconazole] | 0.0318 | -0.0279 | 0.0208 | 0.086
